Laboratory results as given in patent US7476673B2, “Disubstituted chalcone oximes as selective agonists of RARγ retinoid receptors” (Allergan, Inc., priority 2003, dated 2009).
pEC50, pKi: −log10 of the molar value. Blank lines part the entries; values can stand above or below the compound they belong to.

Columns and labels:
RARγ [1] = experiment: chimeric receptor transactivation assay, RARγ; type: cell-based; details: judged from Table 1 data, versus RARα and RARβ
Description: (§1) The compounds of the invention were tested in certain assays for activity as agonists of RAR and RXR retinoid receptors. Specifically, one such assay is a chimeric receptor transactivation assay which tests for agonist-like activity in the RARα, RARβ and RARγ receptor subtypes, and which is based on work published by Feigner P. L. and Holm M. (1989) Focus, 112 is described in detail in U.S. Pat. No. 5,455,265. The specification of U.S. Pat. No. 5,455,265 is hereby expressly incorporated by reference.
(§2) A holoreceptor transactivation assay and a ligand binding assay which measure the antagonist/agonist like activity of the compounds of the invention, or their ability to bind to the several retinoid receptor subtypes, respectively, are described in published PCT Application No. WO WO93/11755 (particularly on pages 30-33 and 37-41) published on Jun. 24, 1993, the specification of which is also incorporated herein by reference. A detailed experimental procedure for holoreceptor transactivations has been described by Heyman et al. Cell 68, 397-406, (1992); Allegretto et al. J. Biol. Chem. 268, 26625-26633, and Mangelsdorf et al. The Retinoids: Biology, Chemistry and Medicine, pp 319-349, Raven Press Ltd., New York, which are expressly incorporated herein by reference. The results obtained in this assay are expressed in EC50 numbers, as they are also in the chimeric receptor transactivation assay. The results of the ligand binding assay are expressed in Ki numbers. (See Cheng et al. Biochemical Pharmacology Vol. 22 pp 3099-3108, expressly incorporated herein by reference.)
(§3) Efficacy in a transactivation assay is expressed as a percentage of the maximum potency attained by the compound compared to a standard which, in this case, is the compound 4-[(1E)-2-(5,6,7,8-tetrahydro-5,5,8,8-tetramethyl-2-naphthalenyl)-1-propenyl]-benzoic acid. (TTNPB) This standard compound is described in PCT Publication WO 2002077169 A2.
(§4) Table 1 discloses the activity of certain exemplary compounds of the invention in the above-described chimeric RAR receptor transactivation and binding assays.

RARβ [2] = target: T1, RARβ (Homo sapiens, UniProt P10826); experiment: chimeric receptor transactivation assay, RARβ; type: cell-based
T1 sequence (P10826 183-455 limits assumed): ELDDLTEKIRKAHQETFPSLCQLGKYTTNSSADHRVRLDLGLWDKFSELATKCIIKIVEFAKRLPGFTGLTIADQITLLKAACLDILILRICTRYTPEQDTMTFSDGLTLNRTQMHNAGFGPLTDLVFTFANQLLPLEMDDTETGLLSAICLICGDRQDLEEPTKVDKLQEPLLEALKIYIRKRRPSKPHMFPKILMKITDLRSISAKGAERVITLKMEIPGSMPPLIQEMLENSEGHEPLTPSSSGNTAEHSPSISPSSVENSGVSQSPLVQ
Description: as §1, §2, §3, §4

RARα [3] = target: T2, RARα (Homo sapiens, UniProt P10276); experiment: chimeric receptor transactivation assay, RARα; type: cell-based
T2 sequence (P10276 183-417 limits assumed): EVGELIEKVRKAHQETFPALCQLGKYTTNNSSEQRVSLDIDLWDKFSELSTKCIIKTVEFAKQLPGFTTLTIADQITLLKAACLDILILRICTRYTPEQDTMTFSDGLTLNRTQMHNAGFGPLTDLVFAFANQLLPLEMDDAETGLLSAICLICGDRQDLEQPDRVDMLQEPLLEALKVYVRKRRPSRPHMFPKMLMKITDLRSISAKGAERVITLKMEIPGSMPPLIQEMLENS
Description: as §1, §2, §3, §4

RARγ [4] = target: T3, RARγ (Homo sapiens, UniProt P13631); experiment: ligand binding assay, RARγ; details: results expressed in Ki numbers, read-out: RAR Binding γ
T3 sequence (P13631 1-454): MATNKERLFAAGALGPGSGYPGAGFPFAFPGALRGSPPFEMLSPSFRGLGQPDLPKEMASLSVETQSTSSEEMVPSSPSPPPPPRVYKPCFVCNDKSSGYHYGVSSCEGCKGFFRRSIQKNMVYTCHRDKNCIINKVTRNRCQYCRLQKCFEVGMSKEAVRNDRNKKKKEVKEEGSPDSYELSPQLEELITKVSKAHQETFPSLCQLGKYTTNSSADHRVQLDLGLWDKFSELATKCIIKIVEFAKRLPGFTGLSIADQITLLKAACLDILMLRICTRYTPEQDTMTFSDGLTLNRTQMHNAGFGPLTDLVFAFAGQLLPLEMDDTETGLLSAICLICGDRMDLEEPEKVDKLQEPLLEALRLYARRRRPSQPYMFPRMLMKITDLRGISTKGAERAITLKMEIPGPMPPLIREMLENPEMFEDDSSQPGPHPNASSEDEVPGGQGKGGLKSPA
Description: as §2, §4

RARα [5] = target: T4, RARα (Homo sapiens, UniProt P10276); experiment: ligand binding assay, RARα; details: results expressed in Ki numbers, read-out: RAR Binding α
T4 sequence (P10276 1-462): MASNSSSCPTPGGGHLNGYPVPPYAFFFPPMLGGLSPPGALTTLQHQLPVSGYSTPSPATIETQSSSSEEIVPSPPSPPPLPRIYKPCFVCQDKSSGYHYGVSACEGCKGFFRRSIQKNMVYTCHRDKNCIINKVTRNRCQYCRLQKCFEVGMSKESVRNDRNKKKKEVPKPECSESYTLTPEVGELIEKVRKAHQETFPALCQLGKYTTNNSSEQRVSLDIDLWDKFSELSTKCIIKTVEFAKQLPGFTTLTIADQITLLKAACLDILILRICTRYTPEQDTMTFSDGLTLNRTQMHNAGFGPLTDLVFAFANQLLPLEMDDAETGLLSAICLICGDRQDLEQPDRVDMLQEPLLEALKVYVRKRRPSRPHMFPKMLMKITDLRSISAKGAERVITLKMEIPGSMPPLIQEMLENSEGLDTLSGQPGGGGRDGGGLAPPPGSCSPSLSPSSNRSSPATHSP
Description: as §2, §4

RARβ [6] = target: T5, RARβ (Homo sapiens, UniProt P10826); experiment: ligand binding assay, RARβ; details: results expressed in Ki numbers, read-out: RAR Binding β
T5 sequence (P10826 1-455): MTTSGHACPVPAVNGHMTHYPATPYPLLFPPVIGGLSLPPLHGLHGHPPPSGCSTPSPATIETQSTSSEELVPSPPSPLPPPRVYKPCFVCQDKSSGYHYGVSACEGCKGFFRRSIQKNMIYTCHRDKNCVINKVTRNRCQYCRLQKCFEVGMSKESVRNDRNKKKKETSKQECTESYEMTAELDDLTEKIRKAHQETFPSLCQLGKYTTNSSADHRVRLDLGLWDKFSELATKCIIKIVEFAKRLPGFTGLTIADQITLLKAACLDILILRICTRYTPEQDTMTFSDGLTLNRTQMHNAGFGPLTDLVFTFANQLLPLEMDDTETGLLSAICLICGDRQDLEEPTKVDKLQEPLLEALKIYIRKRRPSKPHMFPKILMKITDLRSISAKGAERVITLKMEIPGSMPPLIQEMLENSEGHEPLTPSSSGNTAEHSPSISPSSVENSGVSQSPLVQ
Description: as §2, §4

RARγ [7] = target: T6, RARγ (Homo sapiens, UniProt P13631); experiment: chimeric receptor transactivation assay, RARγ; type: cell-based
T6 construct: % Efficiency γ; other: percentage of maximum compared to standard TTNPB
T6 sequence (P13631 185-454 limits assumed): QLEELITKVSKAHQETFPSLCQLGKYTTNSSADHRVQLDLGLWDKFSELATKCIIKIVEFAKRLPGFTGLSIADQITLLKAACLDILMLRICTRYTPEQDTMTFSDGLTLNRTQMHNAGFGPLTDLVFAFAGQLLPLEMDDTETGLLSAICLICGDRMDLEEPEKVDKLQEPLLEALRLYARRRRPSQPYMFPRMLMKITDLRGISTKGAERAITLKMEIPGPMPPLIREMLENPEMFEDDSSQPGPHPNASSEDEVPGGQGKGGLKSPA
Description: as §1, §2, §3, §4

[8] = percentage of maximum compared to standard TTNPB

SMILES: Cc1cc2c(cc1C(/C=C\c1ccc(C(=O)O)cc1)=NO)C(C)(C)CCC2(C)C [Compound 9b, Z4-[3-hydroxyimino-3-(3,5,5,8,8-pentamethyl-5,6,7,8-tetrahydro-naphthalen-2-yl)-propenyl]-benzoic acid]
selectivity to the RARγ receptors (RARγ [1]): less selective

SMILES: COc1cc2c(cc1C(/C=C/c1ccc(C(=O)O)cc1)=NO)C(C)(C)CCC2(C)C [Compound 13a, E-4-[3-Hydroxyimino-3-(3-methoxy-5,5,8,8-tetramethyl-5,6,7,8-tetrahydro-naphthalen-2-yl)-propenyl]-benzoic acid]
selectivity to the RARγ receptors (RARγ [1]): less selective

SMILES: Cc1cc2c(cc1C(/C=C/c1ccc(C(=O)O)cc1)=NO)C(C)(C)CCC2(C)C [Compound 9a, E-4-[3-Hydroxyimino-3-(3,5,5,8,8-pentamethyl-5.6,7,8-tetrahydro-naphthalen-2-yl)-propenyl]-benzoic acid]
selectivity to the RARγ receptors (RARγ [1]): less selective

Other lines, results leading:

selectivity to the RARγ receptors (RARγ [1]): less selective
SMILES: COc1cc2c(cc1C(/C=C\c1ccc(C(=O)O)cc1)=NO)C(C)(C)CCC2(C)C [Compound 13b, Z-4-[3-hydroxyimino-3-(3-methoxy-5,5,8,8-tetramethyl-5,6,7,8-tetrahydro-naphthalen-2-yl)-propenyl]-benzoic acid]

pEC50 (RARβ [2]; chimeric receptor transactivation, read-out: RAR EC50 β): 7.03 | % Efficiency β (RARβ [2]; [8]): 104% | pEC50 (RARα [3]; chimeric receptor transactivation, read-out: RAR EC50 α): 6.29 | % Efficiency α (RARα [3]; [8]): 50% | pKi (RARγ [4]): 7.44 | pKi (RARα [5]): 5.40 | pKi (RARβ [6]): 5.52 | pEC50 (RARγ [7]; chimeric receptor transactivation, read-out: RAR EC50 γ): 8.40 | % Efficiency γ (RARγ [7]; [8]): 95%
SMILES: CC1=CCC(C)(C)c2cc(C(/C=C/c3ccc(C(=O)O)cc3)=N\O)ccc21
